From patent US11566017B2, “Dihydroquinazolinone compound or pharmacologically acceptable salt, and cell growth inhibitor” (RIKEN, priority 2017, dated 2023)
pIC50: −log10 of the molar value.

Assays:
tankyrase 1 (TNKS1) = molecular target: T1, tankyrase 1 (TNKS1) (Homo sapiens, UniProt O95271); experiment: Tankyrase inhibitory activity test (ELISA, auto-poly(ADP-ribosyl)ation), tankyrase 1; type: biochemical; conditions: Flag tagged tankyrase 1 (1,024-1,327aa, SAM+PARP); read-out: TNKS1 (inhibitory activity against tankyrase 1, IC50)
T1 construct: tankyrase 1 (1,024-1,327aa, SAM+PARP); made in house; host or cells: cell-free protein expression system
T1 sequence (O95271 1024-1327): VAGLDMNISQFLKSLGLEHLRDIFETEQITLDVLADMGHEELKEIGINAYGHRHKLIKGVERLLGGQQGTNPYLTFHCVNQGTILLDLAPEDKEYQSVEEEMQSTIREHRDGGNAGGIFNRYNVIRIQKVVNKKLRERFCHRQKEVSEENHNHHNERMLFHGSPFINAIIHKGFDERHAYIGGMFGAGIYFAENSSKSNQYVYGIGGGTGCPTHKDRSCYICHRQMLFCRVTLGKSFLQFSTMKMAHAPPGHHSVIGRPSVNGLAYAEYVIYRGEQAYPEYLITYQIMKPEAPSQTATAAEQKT
Method: (§1) The enzymatic activity of tankyrase 1 and the enzymatic activity of tankyrase 2 were measured by the ELISA method based on assessment of auto-poly(ADP-ribosyl)ation to evaluate the tankyrase inhibitory activity of the compound prepared in each of Examples (test compound) (inhibitory activity against tankyrase 1 (TNKS1) and inhibitory activity against tankyrase 2 (TNKS2)). First, Flag tagged tankyrase 1 (1,024-1,327aa, SAM+PARP) and tankyrase 2 (613-1,116aa, ANK5+SAM+PARP) were synthesized with a cell-free protein expression system, and diluted with a Tris buffer solution (50 mM Tris-HCl (pH 8.0), 150 mM NaCl, 10% glycerol). 50 μL of the diluted tankyrase 1 or tankyrase 2 was added to a plate with an anti-FLAG M2 monoclonal antibody immobilized thereon (Anti-FLAG High-Sensitivity M2-Coated Plate) (Sigma-Aldrich), and the plate was left standing overnight at 4° C. Thereafter, the plate was washed four times with a PBS (PBST) buffer containing 0.1% Triton X-100. For Example 84, the Anti-FLAG High-Sensitivity M2-Coated Plate was replaced by an immunoplate (Thermo Fisher Scientific), tankyrase 1 or tankyrase 2 was immobilized on the immunoplate, and the immunoplate was then blocked with Blocking One (nacalai tesque), then washed with a PBS (PBST) buffer, and used as the following plate.
(§2) Subsequently, the test compound diluted with an assay buffer (50 mM Tris-HCl (pH 8.0), 4 mM MgCl2, 0.2 mM DTT) (DMSO was used as a control) was added to each well of the plate, and the plate was left standing at room temperature for 10 minutes. Thereafter, a biotin-labeled NAD solution (225 μM NAD, 25 μM 6-Biotin-17-NAD (Travigen, Inc.)) was added and mixed as a donor substrate, and the mixture was reacted at 30° C. for 45 minutes. To blank wells was added distilled water instead of the biotin-labeled NAD solution. After the reaction, the plate was washed with a PBST buffer four times. Thereafter, HRP (horseradish peroxidase)-labeled streptavidin (Travigen, Inc.) was diluted with a PBS buffer by 1,000 times, and added to each well, and the mixture was reacted at room temperature for 20 minutes. The plate was washed with a PBST buffer four times, a chemiluminescent substrate solution TACS-Sapphire (Travigen, Inc.) was then added to each well, the mixture was reacted at room temperature for 20 minutes, and the chemiluminescence intensity was measured using a chemiluminescence measuring apparatus. For Example 84, the streptavidin was diluted by 5,000 times, the chemiluminescent substrate solution TACS-Sapphire was replaced by an ELISA POD substrate TMB solution easy (nacalai tesque), the mixture was reacted at room temperature for 30 minutes, and the chemiluminescence intensity was measured using a chemiluminescence measuring apparatus.
(§3) The residual enzymatic activity in the presence of the test compound was determined from the following expression. On the basis of the residual enzymatic activity at each of multiple concentrations of the test compound, the enzyme inhibitory activity was calculated in terms of a 50%-inhibition concentration (IC50 value) using data analysis software Origin (LightStone Corp.). Residual activity (%)={(chemiluminescence intensity with test compound added)−(chemiluminescence intensity of blank)}/{(chemiluminescence intensity of control)−(chemiluminescence intensity of blank)}

tankyrase 2 (TNKS2) = molecular target: T2, tankyrase 2 (TNKS2) (Homo sapiens, UniProt Q9H2K2); experiment: Tankyrase inhibitory activity test (ELISA, auto-poly(ADP-ribosyl)ation), tankyrase 2; type: biochemical; conditions: Flag tagged tankyrase 2 (613-1,116aa, ANK5+SAM+PARP); read-out: TNKS2 (inhibitory activity against tankyrase 2, IC50)
T2 construct: tankyrase 2 (613-1,116aa, ANK5+SAM+PARP); made in house; host or cells: cell-free protein expression system
Method: as §1, §2, §3

[1] = tested on: human colorectal cancer cell line COLO-320DM; experiment: Cell proliferation inhibitory activity test (Celltiter-Glo); type: cell-based; conditions: COLO-320DM cells, 96 hours
Method: The cell proliferation inhibitory activity of the compound, which had been prepared in each of Examples, against the human colorectal cancer cell line COLO-320DM was evaluated by Celltiter-Glo Luminescent Cell Viability Assay (Promega Corporation; G7573). COLO-320DM cells were cultured in RPMI-1640 medium containing 2 mM glutamine (Wako Pure Chemical Industries, Ltd; 189-02025) supplemented with 10% fetal bovine serum. The cultured cells were washed with PBS, and then dissociated with trypsin/EDTA, and a cell solution with 3×10^4 cells/mL was prepared.
Subsequently, the cell solution was seeded in a 96-well microplate (Thermo/Nunc Company; 136101) in an amount of 70 μL per well, and cultured overnight under the condition of 37° C. and 5% CO2. Next day, a test compound solution obtained by diluting the test compound (DMSO solution) with a cell culture medium (final concentration of DMSO was 1%) was added in an amount of 10 μL per well, and the mixture was reacted under the condition of 37° C. and 5% CO2 for 96 hours (a 1% DMSO solution was used as a control). Thereafter, a Celltiter-GloLuminescent Cell Viability Assay reagent (Promega Corporation; G7573) was added in an amount of 80 μL per well, the mixture was stirred with a shaker for 2 minutes while light was blocked with an aluminum foil, and the mixture was incubated at room temperature for 10 minutes.
Thereafter, a luminescence signal was measured with a luminometer (Biotech Company; Synergy). The ratio of cell proliferation in each compound addition group to cell proliferation in a control group containing no test compound solution, where cell proliferation in the control group is 100%, was calculated and the value of a compound concentration necessary for suppressing the amount of residual cells to 50% of that in the control (GI50) was calculated as the cytostatic activity. […] An unevaluated test compound was designated as “NT”.

| Structure (SMILES) | pIC50 (tankyrase 1 (TNKS1)) | pIC50 (tankyrase 2 (TNKS2)) | GI50 [1] [nM] |
| --- | --- | --- | --- |
| CN1CCN(c2cccc(-c3ccc(-c4[nH]ncc4C4NC(=O)c5ccccc5N4C)cc3)c2)CC1 (stereo not drawn) [Example 38, 1-Methyl-2-[5-[4-[3-(4-methylpiperazin-1-yl)phenyl]phenyl]-1H-pyrazol-4-yl]-2,3-dihydroquinazolin-4-one] | 7.30 to 7.70 | 7.30 to 7.70 | 1000 to 10000 |
| Cc1cccc2c1NC(c1n[nH]nc1-c1ccc(OCC(F)(F)F)cc1)NC2=O (stereo not drawn) [Example 72, 8-Methyl-2-[4-[4-(2,2,2-trifluoroethoxy)phenyl]-2H-1,2,3-triazol-5-yl]-2,3-dihydro-1H-quinazolin-4-one] | 7.70 to 8.30 | 7.70 to 8.30 | 1000 to 10000 |
| CCc1cccc2c1NC(c1n[nH]nc1-c1ccc(OC)cc1)NC2=O (stereo not drawn) [Example 81, 8-Ethyl-2-[4-(4-methoxyphenyl)-2H-1,2,3-triazol-5-yl]-2,3-dihydro-1H-quinazolin-4-one] | 7.70 to 8.30 | > 8.30 | 1000 to 10000 |
| CCOc1ccc(-c2n[nH]nc2C2NC(=O)c3ccccc3N2C)cc1 (stereo not drawn) [Example 63, 2-[5-(4-Ethoxyphenyl)-2H-1,2,3-triazol-4-yl]-1-methyl-2,3-dihydroquinazolin-4-one] | 7.70 to 8.30 | 7.70 to 8.30 | 1000 to 10000 |
| CN1c2ccccc2C(=O)NC1c1c[nH]nc1-c1ccc(-c2ccnc3[nH]ccc23)cc1 (stereo not drawn) [Example 39, 1-Methyl-2-[3-[4-(1H-pyrrolo[2,3-b]pyridin-4-yl)phenyl]-1H-pyrazol-4-yl]-2,3-dihydroquinazolin-4-one] | 7.30 to 7.70 | 7.30 to 7.70 | ≥ 10000 |
| CN1CCN(Cc2cccc(-c3cccc(-c4n[nH]cc4C4NC(=O)c5ccccc5N4C)c3)c2)CC1 (stereo not drawn) [Example 33] | 7.30 to 7.70 | 7.30 to 7.70 | ≥ 10000 |
| COc1cccc(-c2n[nH]cc2C2NC(=O)c3ccccc3N2C)c1 (stereo not drawn) [Example 15, 2-[5-(3-Methoxyphenyl)-1H-pyrazol-4-yl]-1-methyl-2,3-dihydroquinazolin-4-one] | 7.70 to 8.30 | 7.30 to 7.70 | ≥ 10000 |
| CN1c2ccccc2C(=O)NC1c1c[nH]nc1-c1ccc([N+](=O)[O-])cc1 (stereo not drawn) [Example 16, 1-Methyl-2-[3-(4-nitrophenyl)-1H-pyrazol-4-yl]-2,3-dihydroquinazolin-4-one] | 7.30 to 7.70 | 7.30 to 7.70 | ≥ 10000 |
| CN1c2ccccc2C(=O)NC1c1c[nH]nc1-c1cc(F)cc(F)c1 (stereo not drawn) [Example 47, 2-[3-(3,5-Difluorophenyl)-1H-pyrazol-4-yl]-1-methyl-2,3-dihydroquinazolin-4-one] | 7.30 to 7.70 | 7.70 to 8.30 | ≥ 10000 |
| Cc1cccc2c1NC(c1cn[nH]c1-c1ccc(-c3ccc(N4CCN(C)CC4)cc3)cc1)NC2=O (stereo not drawn) [Example 51, 8-Methyl-2-[5-[4-[4-(4-methylpiperazin-1-yl)phenyl]phenyl]-1H-pyrazol-4-yl]-2,3-dihydro-1H-quinazolin-4-one] | 7.30 to 7.70 | 7.30 to 7.70 | 1000 to 10000 |
| CN1c2ccccc2C(=O)NC1c1c[nH]nc1-c1ccc(-c2cccc(O)c2)cc1 (stereo not drawn) [Example 24, 2-[3-[4-(3-Hydroxyphenyl)phenyl]-1H-pyrazol-4-yl]-1-methyl-2,3-dihydroquinazolin-4-one] | 7.70 to 8.30 | 7.70 to 8.30 | ≥ 10000 |
| CN1c2ccccc2C(=O)NC1c1n[nH]nc1-c1ccc(-c2ccc(N3CCOCC3)cc2)cc1 (stereo not drawn) [Example 7, 1-Methyl-2-[4-[4-(4-morpholin-4-ylphenyl)phenyl]-2H-1,2,3-triazol-5-yl]-2,3-dihydroquinazolin-4-one] | 7.30 to 7.70 | 7.70 to 8.30 | ≥ 10000 |
| CN1CCN(Cc2ccc(-c3cccc(-c4n[nH]cc4C4NC(=O)c5ccccc5N4C)c3)cc2)CC1 (stereo not drawn) [Example 32] | 7.30 to 7.70 | 7.30 to 7.70 | ≥ 10000 |
| COc1ccc(-c2c[nH]nc2C2NC(=O)c3ccccc3N2)cc1 (stereo not drawn) [Example 85, 2-[4-(4-Methoxyphenyl)-1H-pyrazol-3-yl]-2,3-dihydro-1H-quinazolin-4-one] | 7.70 to 8.30 | > 8.30 | 1000 to 10000 |
| CN1c2ccccc2C(=O)NC1c1c[nH]nc1-c1cccc(-c2ccccc2)c1 (stereo not drawn) [Example 22, 1-Methyl-2-[3-(3-phenylphenyl)-1H-pyrazol-4-yl]-2,3-dihydroquinazolin-4-one] | > 8.30 | > 8.30 | ≥ 10000 |
| COc1ccc(-c2n[nH]nc2C2NC(=O)c3cccc(O)c3N2)cc1 (stereo not drawn) [Example 67, 8-Hydroxy-2-[5-(4-methoxyphenyl)-2H-1,2,3-triazol-4-yl]-2,3-dihydro-1H-quinazolin-4-one] | 7.70 to 8.30 | 7.70 to 8.30 | ≥ 10000 |
| CCOC(=O)Cc1ccc(-c2cccc(-c3n[nH]cc3C3NC(=O)c4ccccc4N3C)c2)cc1 (stereo not drawn) [Example 37, Ethyl 2-[4-[3-[4-(1-methyl-4-oxo-2,3-dihydroquinazolin-2-yl)-1H-pyrazol-5-yl]phenyl]phenyl]acetate] | 7.30 to 7.70 | 7.30 to 7.70 | ≥ 10000 |
| Cc1cccc2c1NC(c1n[nH]nc1-c1ccc(OC(C)C)cc1)NC2=O (stereo not drawn) [Example 76, 8-Methyl-2-[5-(4-propan-2-yloxyphenyl)-2H-1,2,3-triazol-4-yl]-2,3-dihydro-1H-quinazolin-4-one] | 7.30 to 7.70 | 7.70 to 8.30 | 1000 to 10000 |
| CN1c2ccccc2C(=O)NC1c1c[nH]nc1-c1cccc(NC(=O)Nc2ccccc2)c1 (stereo not drawn) [Example 5, 1-[3-[4-(1-Methyl-4-oxo-2,3-dihydroquinazolin-2-yl)-1H-pyrazol-3-yl]phenyl]-3-phenylurea] | 7.70 to 8.30 | 7.70 to 8.30 | ≥ 10000 |
| CN1c2ccccc2C(=O)NC1c1c[nH]nc1-c1ccc(N)cc1 (stereo not drawn) [Example 3, 2-[3-(4-Aminophenyl)-1H-pyrazol-4-yl]-1-methyl-2,3-dihydroquinazolin-4-one] | 7.70 to 8.30 | 7.70 to 8.30 | ≥ 10000 |
| CN1CCN(c2ccc(-c3ccc(-c4n[nH]cc4C4NC(=O)c5ccccc5N4C)cc3F)cc2)CC1 (stereo not drawn) [Example 44, 2-[5-[3-Fluoro-4-[4-(4-methylpiperazin-1-yl)phenyl]phenyl]-1H-pyrazol-4-yl]-1-methyl-2,3-dihydroquinazolin-4-one] | 7.70 to 8.30 | 7.70 to 8.30 | 1000 to 10000 |
